Target: GST-tagged truncated human mutant G2019S LRRK2 (Homo sapiens (Human), UniProt Q5S007, G2019S)
Assay: LRRK2 G2019S Km ATP LanthaScreen assay
Type: biochemical
Details: G2019S LRRK2, 134 μM ATP (Km ATP), LRRKtide substrate
Description: Unless otherwise noted, all reactions are magnetically allowed to stir, diethyl ether used in the experiments described below is Fisher ACS certified material stabilized with BHT, and “concentrated” and/or “solvent removed under reduced pressure” means evaporating the solvent from a solution or mixture using a rotary evaporator or vacuum pump. Unless otherwise noted, flash chromatography is carried out on a Teledyne Isco (Lincoln, NE), Analogix (Burlington, WI), or Biotage (Stockholm, SWE) automated chromatography system using a commercially available cartridge as the column. Columns may be purchased from Teledyne Isco, Analogix, Biotage, Varian (Palo Alto, CA), or Supelco (Bellefonte, PA) and are usually filled with silica gel as the stationary phase. Reverse phase prep-HPLC conditions, where used, can be found at the end of each experimental section. Aqueous solutions were concentrated on a Genevac (Ipswich, ENG) or by freeze-drying/lyophilization. Unless otherwise noted, all LRRK2 pIC50 data presented in tables refers to the LRRK2 G2019S Km ATP LanthaScreen™ assay (Life Technologies Corp., Carlsbad, CA) that is described in the Biological Assay section.
The LRRK2 kinase activity reported herein as IC50 values was determined with LanthaScreen™ technology from Life Technologies Corporation (Carlsbad, CA) using GST-tagged truncated human mutant G2019S LRRK2 in the presence of the fluorescein-labeled peptide substrate LRRKtide, also from Life Technologies. The data presented for the […] depending on the specific conditions and reagents used. Assays were performed in the presence of 134 μM ATP (Km ATP). Upon completion, the assay was stopped and phosphorylated substrate detected with a terbium (Tb)-labeled anti-pERM antibody (cat. no. PV4898). The compound dose response was prepared by diluting a 10 mM stock of compound to a maximum concentration of 9.99 μM in 100% dimethylsulfoxide followed by custom fold serial dilution in dimethylsulfoxide nine times. Twenty nanoliters of each dilution was spotted via a Labcyte Echo onto a 384-well black-sided plate (Corning 3575) followed by 15 μl of a 1.25 nM enzyme solution in 1× assay buffer (50 mM Tris pH 8.5, 10 mM MgCl2, 0.01% Brij-35, 1 mM EGTA, 2 mM dithiothreitol, 0.05 mM sodium orthovanadate). Following a 15-minute incubation at room temperature, the kinase reaction was started with the addition of 5 μl of 400 nM fluorescein-labeled LRRKtide peptide substrate and 134 μM ATP solution in 1× assay buffer. The reaction was allowed to progress at ambient temperature for 90 minutes. The reaction was then stopped by the addition of 20 μl of TR-FRET Dilution Buffer (Life Technologies, Carlsbad, CA) containing 2 nM Tb-labeled anti-phospho LRRKtide antibody and 10 mM EDTA (Life Technologies, Carlsbad, CA). After an incubation of 1 h at room temperature, the plate was read on an EnVision multimode plate reader (Perkin Elmer, Waltham, MA) with an excitation wavelength of 337 nm (Laser) and a reading emission at both 520 and 495 nm. Compound IC50s were interpolated from nonlinear regression best fits of the log of the final compound concentration, plotted as a function of the 520/495-nm emission ratio using Activity base. Abase uses a 4 parameter (4P) logistic fit based on the Levenberg-Marquardt algorithm.

Chain of GST-tagged truncated human mutant G2019S LRRK2 (Q5S007 970-2527 G2019S): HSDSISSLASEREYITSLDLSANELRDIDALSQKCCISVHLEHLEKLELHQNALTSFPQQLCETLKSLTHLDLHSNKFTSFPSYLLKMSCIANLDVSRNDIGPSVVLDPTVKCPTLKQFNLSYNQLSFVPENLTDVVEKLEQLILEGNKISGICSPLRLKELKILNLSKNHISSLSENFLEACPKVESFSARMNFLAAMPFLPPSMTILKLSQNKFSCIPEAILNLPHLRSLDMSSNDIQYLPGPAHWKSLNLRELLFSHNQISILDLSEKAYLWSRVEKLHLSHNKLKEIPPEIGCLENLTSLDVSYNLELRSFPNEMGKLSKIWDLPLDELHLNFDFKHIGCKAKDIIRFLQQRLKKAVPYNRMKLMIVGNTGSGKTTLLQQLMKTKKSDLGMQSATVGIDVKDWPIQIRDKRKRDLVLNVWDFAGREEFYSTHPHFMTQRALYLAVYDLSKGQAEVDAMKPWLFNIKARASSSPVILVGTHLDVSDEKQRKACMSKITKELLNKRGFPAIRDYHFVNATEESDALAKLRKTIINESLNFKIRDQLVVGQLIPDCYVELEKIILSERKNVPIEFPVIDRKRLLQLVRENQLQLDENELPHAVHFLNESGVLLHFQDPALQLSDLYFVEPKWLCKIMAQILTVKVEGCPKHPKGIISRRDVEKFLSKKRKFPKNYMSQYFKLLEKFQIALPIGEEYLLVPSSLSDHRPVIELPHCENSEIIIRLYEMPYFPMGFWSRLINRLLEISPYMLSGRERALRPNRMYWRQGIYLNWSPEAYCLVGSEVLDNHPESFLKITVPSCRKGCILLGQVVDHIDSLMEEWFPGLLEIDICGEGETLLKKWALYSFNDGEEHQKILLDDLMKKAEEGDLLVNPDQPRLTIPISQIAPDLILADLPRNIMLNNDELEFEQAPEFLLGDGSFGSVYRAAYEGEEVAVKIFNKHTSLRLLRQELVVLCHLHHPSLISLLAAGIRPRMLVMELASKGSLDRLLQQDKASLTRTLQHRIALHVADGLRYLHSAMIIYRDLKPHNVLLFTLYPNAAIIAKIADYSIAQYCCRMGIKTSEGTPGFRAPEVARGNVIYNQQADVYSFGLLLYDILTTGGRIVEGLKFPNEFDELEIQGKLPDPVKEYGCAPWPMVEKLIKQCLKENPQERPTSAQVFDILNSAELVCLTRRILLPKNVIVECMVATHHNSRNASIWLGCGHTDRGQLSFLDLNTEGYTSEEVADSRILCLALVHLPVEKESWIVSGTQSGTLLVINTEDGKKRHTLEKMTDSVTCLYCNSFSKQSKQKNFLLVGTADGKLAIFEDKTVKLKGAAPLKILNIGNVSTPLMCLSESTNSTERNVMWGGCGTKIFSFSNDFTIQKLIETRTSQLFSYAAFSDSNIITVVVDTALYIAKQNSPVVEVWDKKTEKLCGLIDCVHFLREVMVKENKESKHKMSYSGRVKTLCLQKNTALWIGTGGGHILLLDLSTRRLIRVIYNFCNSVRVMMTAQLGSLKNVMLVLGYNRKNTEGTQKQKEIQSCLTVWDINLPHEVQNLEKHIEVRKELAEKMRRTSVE

Row | Structure (SMILES) | LRRK2 pIC50
1 | CC1CCOc2c(C3CC3)nn(C)c2Nc2ncc(C(F)(F)F)c(n2)N1 (single isomer, unassigned) [Ex-2.18, (R)- or (S)-3-cyclopropyl-1,7-dimethyl-10-(trifluoromethyl)-1,5,6,7,8,14-hexahydro-9,13-(azeno)pyrazolo[4,3-b][1]oxa[4,6,10]triazacyclotridecine] | 6.65
2 | Cn1nc(C2CC2)c2c1OCC1COCC1Nc1nc(ncc1C(F)(F)F)N2 [Ex-1.7, (10aS,13aS)- or (10aR,13aR)-3-cyclopropyl-1-methyl-8-(trifluoromethyl)-1,4,10a,11,13a,14-hexahydro-10H,13H-5,9-(azeno)furo[3,4-k]pyrazolo[3,4-b][1]oxa[4,6,10]triazacyclotridecine] | >10.09
3 | C[C@@H]1CCOc2cn(C)nc2Nc2ncc(Cl)c(n2)N1 [Ex-18.1, (R)-10-chloro-2,7-dimethyl-2,5,6,7,8,14-hexahydro-9,13-(azeno)pyrazolo[4,3-b][1]oxa[4,6,10]triazacyclotridecine] | 7.94
4 | CC(C)n1nc(C2C[C@@H]2C#N)c2c1Nc1ncc(C(F)(F)F)c(n1)N[C@@H]1COC[C@H]1CO2 (single isomer, unassigned) [Ex-2.44, (1S,2S)- or (1R,2R)-2-((10aS,13aS)-3-isopropyl-8-(trifluoromethyl)-3,4,10a,11,13a,14-hexahydro-10H,13H-5,9-(azeno)furo[3,4-k]pyrazolo[4,3-b][1]oxa[4,6,10]triazacyclotridecin-1-yl)cyclopropane-1-carbonitrile] | 8.80
5 | Cc1nn(C2CCC2)c2c1OC[C@H]1CN(CCO1)c1nc(ncc1C(F)(F)F)N2 (single isomer, unassigned) [Ex-21.1, (6R)- or (6S)-1-cyclobutyl-3-methyl-12-(trifluoromethyl)-1,5,6,8,9,16-hexahydro-11,15-(azeno)-6,10-methanopyrazolo[4,3-e][1,4]dioxa[7,9,13]triazacyclopentadecine] | 6.09
6 | CCn1nc(C)c2c1OCC1(CC1)CNc1nc(ncc1C(F)(F)F)N2 [Ex-1.3, 1′-ethyl-3′-methyl-8′-(trifluoromethyl)-1′,4′,10′,11′-tetrahydro-13′H-spiro[cyclopropane-1,12′-[5,9](azeno)pyrazolo[3,4-b][1]oxa[4,6,10]triazacyclotridecine]] | 9.07
7 | CC(C)n1nc(CO)c2c1Nc1ncc(C(F)(F)F)c(n1)N[C@@H]1CC[C@H]1CO2 [Ex-6.5, ((10aR,12aR)-3-isopropyl-8-(trifluoromethyl)-3,4,10,10a,11,12,12a,13-octahydro-5,9-(azeno)cyclobuta[k]pyrazolo[4,3-b][1]oxa[4,6,10]triazacyclotridecin-1-yl)methanol] | >10.09
8 | Cc1nn(C2CCC2)c2c1OC[C@@H]1COC[C@H]1Nc1cc(ncc1F)N2 [Ex-13.8, (10aR,13aR)-3-cyclobutyl-8-fluoro-1-methyl-3,4,10a,11,13a,14-hexahydro-10H,13H-5,9-(metheno)furo[3,4-k]pyrazolo[4,3-b][1]oxa[4,6,10]triazacyclotridecine] | <5.00
9 | O[C@H]1CC[C@@H]1n1nc(C2CC2)c2c1OC[C@@H]1COC[C@H]1Nc1nc(ncc1C(F)(F)F)N2 (single isomer, unassigned) [Ex-6.8, (1R,2R)- or (1S,2S)-2-((10aS,13aS)-3-cyclopropyl-8-(trifluoromethyl)-10a,11,13a,14-tetrahydro-10H,13H-5,9-(azeno)furo[3,4-k]pyrazolo[3,4-b][1]oxa[4,6,10]triazacyclotridecin-1(4H)-yl)cyclobutan-1-ol] | >10.09
10 | Cn1nc(C2CC2)c2c1OCC1CCC1Nc1nc(ncc1C(F)(F)F)N2 [Ex-1.10, (10aR,12aR)- or (10aS,12aS)-3-cyclopropyl-1-methyl-8-(trifluoromethyl)-1,4,10,10a,11,12,12a,13-octahydro-5,9-(azeno)cyclobuta[k]pyrazolo-[3,4-b][1]oxa[4,6,10]triazacyclo-tridecine] | 6.58
11 | COC1CCC1n1nc(C)c2c1Nc1ncc(C(F)(F)F)c(n1)NC1COCC1CO2 [Ex-2.37, (10aS,13aS)-3-((1R,2R)-(10aS,13aS)-3-((1S,2R)-(10aS,13aS)-3-((1R,2S)-(10aS,13aS)-3-((1R,2R)-(10aR,13aR)-3-((1S,2R)-(10aR,13aR)-3-((1R,2S)-2-methoxycyclobutyl)-1-methyl-8-(trifluoromethyl)-3,4,10a,11,13a,14-hexahydro-10H,13H-5,9-(azeno)furo[3,4-k]pyrazolo[4,3-b][1]oxa[4,6,10]triazacyclotridecine] | 6.00
12 | Cc1nn(C)c2c1OCC1CC[C@H]1Nc1nc(ncc1C(F)(F)F)N2 (stereo partly drawn) [Ex-2.12, (10aR,12aS)- or (10aS,12aR)-1,3-dimethyl-8-(trifluoromethyl)-3,4,10,10a,11,12,12a,13-octahydro-5,9-(azeno)cyclobuta[k]pyrazolo[4,3-b][1]oxa[4,6,10]triazacyclotridecine] | 7.61
13 | CC(C)c1nn(C(C)(C)C#N)c2c1Nc1ncc(C(F)(F)F)c(n1)N[C@@H]1COC[C@H]1CO2 [Ex-1.14, 2-((10aS,13aS)-3-isopropyl-8-(trifluoromethyl)-10a,11,13a,14-tetrahydro-10H,13H-5,9-(azeno)furo[3,4-k]pyrazolo[3,4-b][1]oxa[4,6,10]triazacyclotridecin-1(4H)-yl)-2-methylpropanenitrile] | 8.66
14 | Cc1nn(C2CCC2)c2c1OC[C@@H]1CC[C@@H]1Nc1nc(ncc1Cl)N2 [Ex-2.56, (10aS,12aR)-8-chloro-3-cyclobutyl-1-methyl-3,4,10,10a,11,12,12a,13-octahydro-5,9-(azeno)cyclobuta[k]pyrazolo[4,3-b][1]oxa[4,6,10]triazacyclotridecine] | >10.09
15 | Cn1nc(C2CC2)c2c1OCC1COCC1Nc1nc(ncc1C(F)(F)F)N2 [Ex-1.6, (10aS,13aS)- or (10aR,13aR)-3-cyclopropyl-1-methyl-8-(trifluoromethyl)-1,4,10a,11,13a,14-hexahydro-10H,13H-5,9-(azeno)furo[3,4-k]pyrazolo[3,4-b][1]oxa[4,6,10]triazacyclotridecine] | 6.92
16 | CC(C)c1nn(C(C)(C)CO)c2c1Nc1ncc(C(F)(F)F)c(n1)N[C@H](C)CCO2 [Ex-7.4, (R)-2-(3-isopropyl-11-methyl-8-(trifluoromethyl)-10,11,12,13-tetrahydro-5,9-(azeno)pyrazolo[3,4-b][1]oxa[4,6,10]triazacyclotridecin-1(4H)-yl)-2-methylpropan-1-ol] | >10.09
17 | CC(C)(C#N)n1nc(C2CC2)c2c1OC[C@@H]1CC[C@H]1Nc1nc(ncc1C(F)(F)F)N2 [Ex-1.17, 2-((10aR,12aR)-3-cyclopropyl-8-(trifluoromethyl)-10,10a,11,12,12a,13-hexahydro-5,9-(azeno)cyclobuta[k]pyrazolo[3,4-b][1]oxa[4,6,10]triazacyclotridecin-1(4H)-yl)-2-methylpropanenitrile] | >10.09
18 | CC(C)c1nn(C2CCOC2)c2c1Nc1ncc(C(F)(F)F)c(n1)N[C@@H]1CC[C@H]1CO2 (stereo partly drawn) [Ex-1.18, (10aR,12aR)-3-isopropyl-1-((R)- or (10aR,12aR)-3-isopropyl-1-((S)-tetrahydrofuran-3-yl)-8-(trifluoromethyl)-1,4,10,10a,11,12,12a,13-octahydro-5,9-(azeno)cyclobuta[k]pyrazolo[3,4-b][1]oxa[4,6,10]triazacyclotridecine] | >10.09
19 | COc1cccc2c1Nc1ncc(Cl)c(n1)N[C@@H]1COC[C@H]1CO2 [Ex-15.2, (3aS,16aS)-6-chloro-11-methoxy-3a,4,16,16a-tetrahydro-1H,3H,10H-5,9-(azeno)benzo[b]furo[3,4-k][1]oxa[4,6,10]triazacyclotridecine] | 9.65
20 | Cc1nn(C2CCC2)c2c1OC[C@@H]1COCC[C@H]1Nc1nc(ncc1C(F)(F)F)N2 [Ex-2.33, (4aR,16aS)- or (4aS,16aR)-12-cyclobutyl-14-methyl-7-(trifluoromethyl)-3,4,4a,5,11,12,16,16a-octahydro-1H-6,10-(azeno)pyrano[4,3-k]pyrazolo[4,3-b][1]oxa[4,6,10]triazacyclotridecine] | 9.11

— patent US20250313575A1, “MACROCYCLES AS LRRK2 INHIBITORS, PHARMACEUTICAL COMPOSITIONS, AND USES THEREOF” (Merck Sharp & Dohme LLC, priority 2022, published 2025)
